Patent US20020091086A1, “Peptides that block viral infectivity and methods of use thereof” (priority 1999, published 2002)
Peptide text beside a SMILES is read from it.

What was measured:
[1] = target: T1, BSA (Bos taurus, UniProt P02769); experiment: dialysis-based binding assay with 14C-GPG-NH2, BSA; conditions: dialysis 2 days at 4° C. against 27.5 μM 14C-GPG-NH2; buffer 1.816
T1 construct: purchased Sigma
Procedure: (§1) A dialysis-based binding assay was conducted using a dialysis membrane with a pore size of less than 10 kD. (Slide-A-Lyzer, Pierce). Fifty microliters of a 10 μM stock of the recombinant proteins p24 and gp120 (gifts from the AIDS program, NCIB) and BSA (Sigma) were introduced into separate dialysis membranes and the proteins were dialyzed at 4° C. for 2 days against a 500 ml solution composed of 150 mM NaCl and 50 mM Tris-HCl, pH 7.4 buffer and 27.5 μM of ^14C-GPG-NH2 (Amersham Ltd. UK). Subsequently, ten or five microliter aliquots of the dialyzed p24, gp120, and BSA were removed and mixed with 3 ml of ReadySafe (Beckman) in a scintillation vial. The C^14 was then detected by scintillation counting.

[2] = four week oral toxicology study in rats; format: in vivo; conditions: orally up to 1 g per kilo bodyweight per day, twenty eight days
Procedure: In this example, the results from several in vivo toxicology studies on small peptides administered in large doses to rodents are presented. In a first experiment, a large single dose of small peptide was delivered to mice and the toxic effects were analyzed. […] In a second experiment, several doses of varying amounts of a small peptide were delivered to mice for almost three weeks. Groups of mice (five mice in each group) were given intraperitoneal injections of GPG-NH2 (0.01, 0.1 and 1 g per kilo bodyweight and day, respectively) starting at an age of 6 days. Daily injections were continued for 18 days. […] In a similar experiment, a four week toxicology study of GPG-NH2 was performed by Scantox A/S in Denmark. GPG-NH2 was given orally to rats at doses up to 1 g per kilo bodyweight per day for twenty eight days.

[3] = target: T2, recombinant gp120 (Human immunodeficiency virus type 1 group M subtype B, UniProt P03375); experiment: dialysis-based binding assay with 14C-GPG-NH2, gp120; set-up: species or system HIV-1; conditions: dialysis 2 days at 4° C. against 27.5 μM 14C-GPG-NH2; buffer 1.816
T2 construct: recombinant proteins p24 and gp120 (gifts from the AIDS program, NCIB); purchased AIDS program, NCIB (gift, not bought)
Procedure: as §1

[4] = test system: HSV-1; format: cell-based; conditions: concentrations up to 1 mM
[5] = test system: GPG-deleted mutant mp10; experiment: infectivity in MT-2 cells, p24 ELISA, GPG-deleted mutant mp10; format: cell-based, HIV-1
Procedure: (§2) Accordingly, the ability of GPG-NH2 to inhibit the infectivity of wild-type and V3-loop deletion mutants (GPG domain) in MT-2 cells was determined. In these experiments, approximately 200,000 MT-2 cells were infected with HIV-1Bru wild-type and GPG-deleted mutants mp8 and mp10 at 25 TCID50 to test the inhibitory effect of GPG-NH2 The MT-2 cells were resuspended in 1 ml of RPMT 1640 medium supplemented with 10% (v/v) heat-inactivated fetal bovine serum (FBS, GIBCO), penicillin (100μ/ml), streptomycin (100μ/ml) and Polybrene (Sigma 2 μg/ml) with or without the presence of GPG-NH2 at concentration 20 of μM and 100 μM. Thereafter, viruses were added at 25 TCID50 in a volume of 20-30 μl. Cells were incubated with virus at 37° C. for 16 hr then loosely pelleted by centrifugation at 170×g for 7 minutes. The cells were then washed three times in RPMI medium without peptides at room temperature by cell sedimentation at 170×g for 7 minutes as above. After the final wash, the cells were resuspended in RPMI culture medium in 24-well plate (Costar corporation) then kept at 37° C. in 5% CO2 with humidity. Culture supernatants were collected when medium was changed at day 4, 7, 11 and 14 post infection. To monitor the replication of virus, HIV-1 p24 antigen protein in the supernatants from day 7 and 14 was assayed by a ELISA kit (Abbott Laboratories) which has a linear dose-response range from 20 pg to 640 pg of p24 per ml and the p24 amount can be determined with aid of the regression line.

[6] = target: HIV-1 specific protease (Human immunodeficiency virus type 1 group M subtype B, UniProt P04585); experiment: activity of the HIV-1 specific protease; format: biochemical
[7] = test system: THP-1; experiment: cytotoxicity, cell counting; conditions: 40 mM, 3 days
Procedure: (§3) The in vitro 50% cytotoxic concentrations (CC50) of various cell lines was also assessed. Accordingly, different concentrations of GPG-NH2, up to 40 mM, was supplemented into the medium culture of T-cell lines HUT78, H9, CEM-SS, MT-2 and (non) induced ACH-2, as well as, the macrophage derived cell lines […], THP-1 and (non) induced U-1 cells. After 3 days of incubation, the number of cells were counted.

[8] = test system: CEM-SS; experiment: cytotoxicity, cell counting; conditions: 40 mM, 3 days
Procedure: as §3

[9] = test system: H9; experiment: cytotoxicity, cell counting; conditions: 40 mM, 3 days
Procedure: as §3

[10] = test system: HIV-1 strain HTLV-IIIB; conditions: passaged in serial dilutions for more than six months
[11] = test system: HIV-1 isolate p7261 (low AZT); experiment: resistant HIV-1 isolates in PBMC, p24 ELISA; format: cell-based; conditions: GPG 100 μM, 14 days post infection
[12] = stability in human plasma by thin layer chromatography; format: in vitro ADME; conditions: 37° C.; 30 minutes, two hours, eight hours
Procedure: The stability of GPG-NH2 in human plasma was also assessed chemically by thin layer chromatography (TLC). (See FIG. 7). In this experiment, ^14C GPG-NH2 was incubated with human plasma at 37° C. for 30 minutes, two hours, or eight hours and then the proteins were separated by TLC and were visualized by exposure of the chromatograph to autoradiography film. As shown in FIG. 7 (lanes Hp0, Hp0.5, Hp2, and Hp8), a slight shift in mobility of the small peptide was observed. […] Mass-spectrometry analysis (electrospray analysis) of the TLC spots verified that all spots, including the spot with increased mobility, were GPG-NH2.

[13] = test system: HIV-1Bru wild-type; experiment: infectivity in MT-2 cells, p24 ELISA, wild-type; format: cell-based
Procedure: as §2

SMILES: NCC(=O)N1CCC[C@H]1C(=O)NCC(N)=O [GPG-NH2, glycyl-prolyl-glycine amide] (H-Gly-Pro-Gly-NH2)
- radioactive GPG-NH2 associated with BSA [1]: 1.674 μCi/ml
- signs of toxicity [2]: No signs of toxicity
- radioactive GPG-NH2 associated with gp120 [3]: 1.745 μCi/ml
- HSV-1 replication [4]: failed to reduce HSV-1 replication
- p24 ([5]; GPG 20 μM, Day 7): 1560 pg/mL
- reduction (%) ([5]; GPG 20 μM, Day 7): 50%
- p24 ([5]; GPG 20 μM, Day 14): 51500 pg/mL
- reduction (%) ([5]; GPG 20 μM, Day 14): 89%
- p24 ([5]; GPG 100 μM, Day 7): 173 pg/mL
- reduction (%) ([5]; GPG 100 μM, Day 7): 94%
- p24 ([5]; GPG 100 μM, Day 14): 47700 pg/mL
- reduction (%) ([5]; GPG 100 μM, Day 14): 90%
- activity of the HIV-1 specific protease [6]: not to affect
- decrease in cell number [7]: less than 20%
- decrease in cell number [8]: less than 20%
- decrease in cell number [9]: less than 20%
- development of resistance in vitro [10]: without overt signs of development of resistance
- % reduction [11]: (100%)
- HIV-1 p24 [11]: <500 pg/mL
- TLC mobility after incubation in human plasma [12]: no further change in mobility was observed at up to 8 hours
- p24 ([13]; GPG 20 μM, Day 7, WT): 23900 pg/mL
- reduction (%) ([13]; GPG 20 μM, Day 7, WT): 29%
- p24 ([13]; GPG 20 μM, Day 14, WT): 223000 pg/mL
- reduction (%) ([13]; GPG 20 μM, Day 14, WT): 38%
- p24 ([13]; GPG 100 μM, Day 7, WT): 3390 pg/mL
- reduction (%) ([13]; GPG 100 μM, Day 7, WT): 90%
- p24 ([13]; GPG 100 μM, Day 14, WT): 181000 pg/mL
- reduction (%) ([13]; GPG 100 μM, Day 14, WT): 49%
